From ChEMBL document CHEMBL1821607, “N-Arylalkyl-2-azaadamantanes as cage-expanded polycarbocyclic sigma (σ) receptor ligands” (Bioorg Med Chem Lett, 2011)

Key:
[1] = target: Muscarinic acetylcholine receptor M3 (Homo sapiens) (UniProt P20309); assay: Inhibition of M3 muscarinic receptor at 10 uM by NIMH PDSP
[2] = target: Alpha-2A adrenergic receptor (Homo sapiens, UniProt P08913); assay: Inhibition of alpha-2A adrenergic receptor by NIMH PDSP
[3] = target: Sodium-dependent noradrenaline transporter (Homo sapiens, UniProt P23975); assay: Inhibition of NET transporter at 10 uM by NIMH PDSP
[4] = target: T1, Kappa-type opioid receptor (Homo sapiens, UniProt P41145); assay: Inhibition of kappa opioid receptor by NIMH PDSP
[5] = target: Muscarinic acetylcholine receptor M4 (Homo sapiens) (UniProt P08173); assay: Inhibition of M4 muscarinic receptor at 10 uM by NIMH PDSP
[6] = target: Sigma non-opioid intracellular receptor 1 (Cavia porcellus, UniProt Q60492); assay: Displacement of [3H](+)-pentazocine from sigma 1 receptor in guinea pig brain homogenates after 90 mins by scintillation counting; type: tissue-based
[7] = target: Muscarinic acetylcholine receptor M2 (Homo sapiens) (UniProt P08172); assay: Inhibition of M2 muscarinic receptor at 10 uM by NIMH PDSP
[8] = species on record: Rattus norvegicus; assay: Inhibition of BZP receptor in rat brain at 10 uM by NIMH PDSP; type: tissue-based
[9] = target: T2, Alpha-1D adrenergic receptor (Homo sapiens) (UniProt P25100); assay: Inhibition of alpha-1D adrenergic receptor at 10 uM by NIMH PDSP
T2 sequence (whole entry): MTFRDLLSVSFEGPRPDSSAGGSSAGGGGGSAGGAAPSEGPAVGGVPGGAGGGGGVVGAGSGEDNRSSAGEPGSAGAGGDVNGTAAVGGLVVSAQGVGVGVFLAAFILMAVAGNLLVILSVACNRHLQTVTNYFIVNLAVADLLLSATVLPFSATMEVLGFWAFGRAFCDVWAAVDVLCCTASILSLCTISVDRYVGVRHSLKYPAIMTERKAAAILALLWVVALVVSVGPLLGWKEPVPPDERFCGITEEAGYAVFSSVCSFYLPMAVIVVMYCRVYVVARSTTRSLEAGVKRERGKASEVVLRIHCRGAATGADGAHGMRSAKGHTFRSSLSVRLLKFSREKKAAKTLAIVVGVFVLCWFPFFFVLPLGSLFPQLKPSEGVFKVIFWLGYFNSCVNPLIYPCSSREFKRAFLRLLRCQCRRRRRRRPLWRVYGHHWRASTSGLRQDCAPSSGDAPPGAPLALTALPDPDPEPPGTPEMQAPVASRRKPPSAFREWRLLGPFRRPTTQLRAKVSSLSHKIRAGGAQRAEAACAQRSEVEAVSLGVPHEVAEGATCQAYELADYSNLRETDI

[10] = target: Beta-2 adrenergic receptor (Homo sapiens) (UniProt P07550); assay: Inhibition of beta-2 adrenergic receptor at 10 uM by NIMH PDSP
[11] = target: Alpha-2B adrenergic receptor (Homo sapiens, UniProt P18089); assay: Inhibition of alpha-2B adrenergic receptor by NIMH PDSP
[12] = target: 5-hydroxytryptamine receptor 2B (Homo sapiens) (UniProt P41595); assay: Inhibition of 5-HT2B receptor at 10 uM by NIMH PDSP
[13] = target: T3, Alpha-1A adrenergic receptor (Homo sapiens) (UniProt P35348); assay: Inhibition of alpha-1A adrenergic receptor at 10 uM by NIMH PDSP
T3 sequence (whole entry): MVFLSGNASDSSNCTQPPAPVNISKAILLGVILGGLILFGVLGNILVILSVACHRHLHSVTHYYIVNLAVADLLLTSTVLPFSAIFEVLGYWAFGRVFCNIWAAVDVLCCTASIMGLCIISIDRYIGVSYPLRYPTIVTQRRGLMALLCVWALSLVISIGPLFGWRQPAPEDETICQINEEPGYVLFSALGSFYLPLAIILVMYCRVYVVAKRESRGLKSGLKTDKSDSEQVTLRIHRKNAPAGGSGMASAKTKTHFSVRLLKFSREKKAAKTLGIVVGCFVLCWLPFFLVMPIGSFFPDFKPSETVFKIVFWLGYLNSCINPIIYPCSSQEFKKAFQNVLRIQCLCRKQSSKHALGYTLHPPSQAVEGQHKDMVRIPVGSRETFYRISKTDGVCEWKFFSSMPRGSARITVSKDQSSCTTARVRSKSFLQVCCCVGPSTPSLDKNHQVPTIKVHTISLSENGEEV

[14] = target: Delta-type opioid receptor (Homo sapiens) (UniProt P41143); assay: Inhibition of delta opioid receptor at 10 uM by NIMH PDSP
[15] = target: Muscarinic acetylcholine receptor M5 (Homo sapiens) (UniProt P08912); assay: Inhibition of M5 muscarinic receptor at 10 uM by NIMH PDSP
[16] = Selectivity ratio of Ki for sigma 1 receptor in guinea pig brain to Ki for sigma 2 receptor in rat liver
[17] = target: Histamine H1 receptor (Homo sapiens, UniProt P35367); assay: Inhibition of H1 receptor by NIMH PDSP
[18] = target: Sodium-dependent dopamine transporter (Homo sapiens) (UniProt Q01959); assay: Inhibition of DAT transporter at 10 uM by NIMH PDSP
[19] = target: Muscarinic acetylcholine receptor M5 (Homo sapiens, UniProt P08912); assay: Inhibition of M5 muscarinic receptor by NIMH PDSP
[20] = Selectivity ratio of Ki for sigma 2 receptor in rat liver to Ki for sigma 1 receptor in guinea pig brain
[21] = target: T1, Kappa-type opioid receptor; assay: Inhibition of kappa opioid receptor at 10 uM by NIMH PDSP
[22] = target: Muscarinic acetylcholine receptor M4 (Homo sapiens, UniProt P08173); assay: Inhibition of M4 muscarinic receptor by NIMH PDSP
[23] = target: Muscarinic acetylcholine receptor M2 (Homo sapiens, UniProt P08172); assay: Inhibition of M2 muscarinic receptor by NIMH PDSP
[24] = target: Alpha-1A adrenergic receptor (Homo sapiens, UniProt P35348); assay: Inhibition of alpha-1A adrenergic receptor by NIMH PDSP
[25] = target: D(1A) dopamine receptor (Homo sapiens, UniProt P21728); assay: Inhibition of D1 dopamine receptor by NIMH PDSP

Sequence of Histamine H1 receptor (P35367 whole entry): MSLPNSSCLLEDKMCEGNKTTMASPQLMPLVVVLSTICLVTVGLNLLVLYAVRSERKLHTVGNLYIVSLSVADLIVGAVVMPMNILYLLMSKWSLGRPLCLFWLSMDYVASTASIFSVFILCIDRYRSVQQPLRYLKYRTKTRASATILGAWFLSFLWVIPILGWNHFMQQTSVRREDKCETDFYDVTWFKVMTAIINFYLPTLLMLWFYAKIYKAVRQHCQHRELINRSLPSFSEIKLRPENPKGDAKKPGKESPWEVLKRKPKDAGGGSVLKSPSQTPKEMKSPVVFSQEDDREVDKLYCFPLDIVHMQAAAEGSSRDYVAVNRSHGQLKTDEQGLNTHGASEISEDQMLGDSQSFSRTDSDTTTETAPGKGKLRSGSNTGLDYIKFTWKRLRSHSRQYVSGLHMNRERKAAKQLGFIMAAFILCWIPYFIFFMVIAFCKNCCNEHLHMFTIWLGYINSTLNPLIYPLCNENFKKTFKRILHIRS
Sequence of Muscarinic acetylcholine receptor M3 (Homo sapiens) (P20309 whole entry, looked up): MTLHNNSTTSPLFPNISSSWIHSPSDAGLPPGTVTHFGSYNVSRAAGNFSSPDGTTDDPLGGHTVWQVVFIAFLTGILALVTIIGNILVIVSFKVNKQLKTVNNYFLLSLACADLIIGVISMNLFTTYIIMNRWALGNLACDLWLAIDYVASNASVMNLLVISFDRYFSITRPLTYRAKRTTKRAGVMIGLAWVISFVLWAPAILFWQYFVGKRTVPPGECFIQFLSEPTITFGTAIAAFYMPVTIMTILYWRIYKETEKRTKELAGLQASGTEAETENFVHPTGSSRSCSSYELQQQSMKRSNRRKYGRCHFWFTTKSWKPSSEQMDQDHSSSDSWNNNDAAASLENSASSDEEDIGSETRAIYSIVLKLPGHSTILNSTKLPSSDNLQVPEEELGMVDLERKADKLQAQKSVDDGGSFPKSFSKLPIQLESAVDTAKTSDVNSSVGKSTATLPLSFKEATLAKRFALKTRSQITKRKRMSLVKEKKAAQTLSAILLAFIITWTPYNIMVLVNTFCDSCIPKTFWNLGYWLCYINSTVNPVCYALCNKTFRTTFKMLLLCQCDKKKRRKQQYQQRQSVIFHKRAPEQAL
T1 sequence (P41145 whole entry): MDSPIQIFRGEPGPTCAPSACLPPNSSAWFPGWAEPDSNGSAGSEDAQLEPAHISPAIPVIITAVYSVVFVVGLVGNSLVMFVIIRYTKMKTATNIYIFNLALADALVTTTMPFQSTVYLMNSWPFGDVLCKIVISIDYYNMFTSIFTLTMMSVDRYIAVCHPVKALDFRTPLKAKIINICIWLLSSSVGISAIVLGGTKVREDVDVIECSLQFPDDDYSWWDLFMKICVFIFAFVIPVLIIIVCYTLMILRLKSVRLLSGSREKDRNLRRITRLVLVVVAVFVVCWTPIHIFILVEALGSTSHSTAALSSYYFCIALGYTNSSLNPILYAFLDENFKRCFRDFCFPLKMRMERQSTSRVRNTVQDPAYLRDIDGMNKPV
Sequence of Beta-2 adrenergic receptor (Homo sapiens) (P07550 whole entry, looked up): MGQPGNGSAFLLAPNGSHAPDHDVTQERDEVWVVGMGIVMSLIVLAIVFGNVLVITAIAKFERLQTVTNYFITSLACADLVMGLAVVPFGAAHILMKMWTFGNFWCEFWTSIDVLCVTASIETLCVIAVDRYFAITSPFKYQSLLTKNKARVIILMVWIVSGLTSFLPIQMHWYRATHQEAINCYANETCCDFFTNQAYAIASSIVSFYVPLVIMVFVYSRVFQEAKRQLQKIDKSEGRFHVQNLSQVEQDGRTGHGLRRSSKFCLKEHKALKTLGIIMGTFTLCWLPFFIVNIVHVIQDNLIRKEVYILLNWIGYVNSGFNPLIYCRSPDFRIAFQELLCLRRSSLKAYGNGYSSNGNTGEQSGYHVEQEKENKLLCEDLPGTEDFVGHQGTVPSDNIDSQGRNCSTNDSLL
Sequence of Sigma non-opioid intracellular receptor 1 (Q60492 whole entry): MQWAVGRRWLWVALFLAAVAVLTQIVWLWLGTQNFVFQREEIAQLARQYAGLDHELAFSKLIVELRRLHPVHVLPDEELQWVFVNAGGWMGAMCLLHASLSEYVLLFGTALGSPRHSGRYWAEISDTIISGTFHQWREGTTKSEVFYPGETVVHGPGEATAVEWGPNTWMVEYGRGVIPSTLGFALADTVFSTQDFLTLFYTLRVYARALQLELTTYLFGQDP
Sequence of 5-hydroxytryptamine receptor 2B (Homo sapiens) (P41595 whole entry): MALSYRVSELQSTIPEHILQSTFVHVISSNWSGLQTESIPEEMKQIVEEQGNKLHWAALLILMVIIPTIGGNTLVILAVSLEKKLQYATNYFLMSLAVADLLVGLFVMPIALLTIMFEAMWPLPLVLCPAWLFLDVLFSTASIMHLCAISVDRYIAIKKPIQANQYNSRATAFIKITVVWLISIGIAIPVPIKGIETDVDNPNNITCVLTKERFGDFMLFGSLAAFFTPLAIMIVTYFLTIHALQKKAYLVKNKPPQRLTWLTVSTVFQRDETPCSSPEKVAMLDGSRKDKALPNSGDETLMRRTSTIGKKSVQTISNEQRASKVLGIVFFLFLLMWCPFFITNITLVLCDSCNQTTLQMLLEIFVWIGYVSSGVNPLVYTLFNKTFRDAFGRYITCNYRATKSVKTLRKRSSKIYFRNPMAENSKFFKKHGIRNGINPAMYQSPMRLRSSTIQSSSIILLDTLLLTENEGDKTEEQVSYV
Sequence of Delta-type opioid receptor (Homo sapiens) (P41143 whole entry): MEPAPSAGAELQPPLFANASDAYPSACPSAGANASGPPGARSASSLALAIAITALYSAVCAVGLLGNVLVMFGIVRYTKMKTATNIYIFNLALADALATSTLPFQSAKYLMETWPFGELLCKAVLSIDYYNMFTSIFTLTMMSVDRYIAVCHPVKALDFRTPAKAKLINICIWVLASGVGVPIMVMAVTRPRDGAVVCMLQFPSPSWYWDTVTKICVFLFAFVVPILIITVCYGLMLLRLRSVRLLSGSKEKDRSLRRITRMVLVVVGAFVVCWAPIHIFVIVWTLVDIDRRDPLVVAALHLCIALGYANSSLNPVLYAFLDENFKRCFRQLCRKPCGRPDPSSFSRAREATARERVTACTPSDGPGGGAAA
Sequence of Muscarinic acetylcholine receptor M2 (P08172 whole entry): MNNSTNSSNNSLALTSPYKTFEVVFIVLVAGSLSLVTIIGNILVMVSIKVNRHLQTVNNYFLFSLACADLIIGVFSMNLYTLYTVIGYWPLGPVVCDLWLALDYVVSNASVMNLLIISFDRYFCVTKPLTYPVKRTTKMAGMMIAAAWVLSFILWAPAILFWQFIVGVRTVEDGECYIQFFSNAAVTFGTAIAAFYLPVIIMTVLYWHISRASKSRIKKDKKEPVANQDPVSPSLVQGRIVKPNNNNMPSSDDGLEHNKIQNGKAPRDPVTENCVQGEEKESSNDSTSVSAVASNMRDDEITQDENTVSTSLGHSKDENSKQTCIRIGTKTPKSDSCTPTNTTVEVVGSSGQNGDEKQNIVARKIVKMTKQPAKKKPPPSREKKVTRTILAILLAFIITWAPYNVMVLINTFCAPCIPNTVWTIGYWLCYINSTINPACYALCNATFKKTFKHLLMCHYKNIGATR
Sequence of Muscarinic acetylcholine receptor M2 (Homo sapiens) (P08172 whole entry): as above
Sequence of Muscarinic acetylcholine receptor M4 (Homo sapiens) (P08173 whole entry): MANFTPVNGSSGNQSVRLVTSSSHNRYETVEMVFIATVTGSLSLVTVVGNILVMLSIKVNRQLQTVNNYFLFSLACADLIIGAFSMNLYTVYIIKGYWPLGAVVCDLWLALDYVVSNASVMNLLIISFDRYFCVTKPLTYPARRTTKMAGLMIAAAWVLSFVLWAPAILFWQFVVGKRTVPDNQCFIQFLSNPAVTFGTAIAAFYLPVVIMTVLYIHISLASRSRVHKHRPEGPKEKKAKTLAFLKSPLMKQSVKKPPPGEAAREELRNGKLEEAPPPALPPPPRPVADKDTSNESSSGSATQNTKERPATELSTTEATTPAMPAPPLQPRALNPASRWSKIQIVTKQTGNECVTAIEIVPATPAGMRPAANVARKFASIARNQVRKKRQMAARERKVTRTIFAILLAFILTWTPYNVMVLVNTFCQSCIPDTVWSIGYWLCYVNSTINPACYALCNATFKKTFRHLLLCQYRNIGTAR
Sequence of Muscarinic acetylcholine receptor M4 (P08173 whole entry): as above
Sequence of Sodium-dependent dopamine transporter (Homo sapiens) (Q01959 whole entry): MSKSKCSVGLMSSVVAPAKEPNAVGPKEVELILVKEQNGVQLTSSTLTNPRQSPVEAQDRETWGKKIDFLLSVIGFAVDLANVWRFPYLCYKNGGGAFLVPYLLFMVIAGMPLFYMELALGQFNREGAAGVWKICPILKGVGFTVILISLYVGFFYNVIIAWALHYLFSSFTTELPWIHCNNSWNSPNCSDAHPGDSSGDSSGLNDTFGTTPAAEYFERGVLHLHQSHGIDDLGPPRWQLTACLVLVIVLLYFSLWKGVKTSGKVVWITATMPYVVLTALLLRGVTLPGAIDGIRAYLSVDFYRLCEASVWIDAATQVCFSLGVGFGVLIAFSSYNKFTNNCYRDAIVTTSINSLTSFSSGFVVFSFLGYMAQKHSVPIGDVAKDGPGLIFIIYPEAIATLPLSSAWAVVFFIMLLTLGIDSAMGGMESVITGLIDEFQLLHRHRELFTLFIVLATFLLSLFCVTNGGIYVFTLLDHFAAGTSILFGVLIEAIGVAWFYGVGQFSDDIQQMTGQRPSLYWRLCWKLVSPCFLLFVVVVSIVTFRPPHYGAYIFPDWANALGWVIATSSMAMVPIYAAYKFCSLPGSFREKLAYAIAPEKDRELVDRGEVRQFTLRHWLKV

| Compound | inhibition [1] [%] | Ki [4] [nM] | inhibition [5] [%] | Ki [6] [nM] | inhibition [7] [%] | inhibition [8] [%] | inhibition [9] [%] | inhibition [10] [%] | inhibition [12] [%] | inhibition [13] [%] | inhibition [14] [%] | inhibition [15] [%] | Ratio Ki [16] | Ki [17] [µM] | inhibition [18] [%] | Ki [19] [µM] | Ratio Ki [20] | inhibition [21] [%] | Ki [22] [nM] | Ki [23] [µM] | further results |
| --- | --- | --- | --- | --- | --- | --- | --- | --- | --- | --- | --- | --- | --- | --- | --- | --- | --- | --- | --- | --- | --- |
| OC12CC3CC(CC(C3)N1Cc1ccccc1)C2 (racemic) | < 50 | 662 | < 50 | 1450 | < 50 | < 50 | < 50 | < 50 | < 50 | < 50 | < 50 | < 50 | 1.4 | < 10 |  |  |  |  |  |  | Ki [2]: > 10 µM; inhibition [3]: < 50%; Ki [11]: > 10 µM |
| c1ccc(CN2C3CC4CC(C3)CC2C4)cc1 | < 50 |  |  | 29 |  | < 50 | < 50 | < 50 | < 50 | < 50 | < 50 |  |  | < 10 | < 50 | 6.55 | 3.3 | < 50 | 1780 | 4.3 |  |
| OC12CC3CC(CC(C3)N1Cc1cccc(F)c1)C2 (racemic) | < 50 | 1200 | < 50 | 862 | < 50 | < 50 | < 50 | < 50 | < 50 | < 50 | < 50 | < 50 | 1.2 | < 10 |  |  |  |  |  |  |  |
| Fc1cccc(CN2C3CC4CC(C3)CC2C4)c1 | < 50 |  |  | 22 |  | < 50 | < 50 | < 50 | < 50 |  | < 50 |  |  | < 10 | < 50 | 5.48 | 6 | < 50 | 1360 | 3.54 | Ki [24]: > 10 µM; Ki [25]: > 10 µM |
